Like-named read-outs stand apart in the source and are kept apart here.
What was measured:
[1] = molecular target: human recombinant 5-HT2C receptor (Homo sapiens (Human), UniProt P28335); test: 5-HT2C receptor binding inhibition test ([3H]-Mesulergine); details: Jump-In HEK cell membrane, [3H]-Mesulergine
Method: (§1) (Each Experimental Condition)
Cell membrane: Jump-In HEK cell membrane (expressing human recombinant 5-HT2C receptor)
(§2) Assay buffer: Tris-HCl 50 mmol/L (pH 7.4) containing NaCl 120 mmol/L, MgCl2.6H2O 1 mmol/L, KCl 5 mmol/L, 0.1% BSA, and CaCl2 2 mmol/L
Radioactive ligand: [^3H]-Mesulergine around Kd value calculated by the following method
(§3) Non-specific ligand: Serotonin HCl
The Kd value was calculated when the lot of cell membrane was changed. In advance, 0.5 μL of a 1 mmol/L compound for non-specific binding calculation dissolved in DMSO or DMSO was dispensed into a microplate, and the cell membrane was diluted with an Assay buffer. The radioactive ligand solution was serially diluted and the count was confirmed with a liquid scintillator. Assay buffer containing diluted cell membrane was dispensed into a microplate at 50 μL/well. Then, the radioactive ligand solution was dispensed into a microplate at 50 μL/well, and the plate was sealed. It was allowed to stand at room temperature (25° C.) for 1.5 hours. During this period, 50 mmol/L Tris-HCl (pH 7.4) was dispensed into a GF/B UniFilter plate at 50 μL/well and allowed to stand at […] for 1 hour or longer. After that, filtration was performed with Cell harvester (PerkinElmer). The radioactive ligand solution was dispensed into an empty well of the GF/B UniFilter plate at 10 μL/well. After the GF/B UniFilter plate was dried at room temperature, MicroScinti 20 was dispensed into the GF/B UniFilter plate at 50 μL/well, and the plate was sealed. The GF/B UniFilter plate was allowed to stand overnight at room temperature. […] The Saturation curve was drawn from the measured value, and the Kd value was calculated from the slope of the Scatchard Plot.
(§4) (Binding Test of the Compound According to the Present Invention)
In advance, 0.5 μL of the compound solution dissolved in DMSO was dispensed into a microplate, and the cell membrane and the hot ligand were diluted with Assay buffer, respectively. Then, the Assay buffer containing the diluted cell membrane was dispensed into a microplate at 50 μL/well. Then, the radioactive ligand solution was dispensed into a microplate at 50 μL/well, and the plate was sealed. Then, it was allowed to stand at 37° C. for 2 hours. During this period, 50 mmol/L Tris-HCl (pH 7.4) was dispensed into a GF/B UniFilter plate at 50 μL/well and allowed to stand at 4° C. for 1 hour or longer. After that, filtration was performed with Cell harvester (PerkinElmer). After the GF/B UniFilter plate was dried at room temperature, MicroScinti 20 was dispensed into the GF/B UniFilter plate at 50 μL/well, and the plate was sealed. The GF/B UniFilter plate was allowed to stand overnight at room temperature. […] The non-specific binding was calculated from the radioactivity of [^3H]-Mesulergine in the presence of […] Serotonin HCl with the unlabeled ligand, and the total binding was calculated from the radioactivity of [^3H]-Mesulergine in the absence of the compound according to the present invention (Vehicle). Finally, the Ki value was calculated from the dose-response curve.
(§5) (The binding activity of the compound according to the present invention was calculated from the following binding inhibition rate (%).)
(§6) Inhibition rate (%)=[1−(c−a)/(b−a)]×100 • a; mean cpm of non-specific binding • b; mean cpm of total binding • c; cpm in the presence of the test compound

[2] = molecular target: human recombinant 5-HT2A receptor (Homo sapiens (Human), UniProt P28223); test: 5-HT2A receptor binding inhibition test ([3H]-Ketanserin); details: Jump-In HEK cell membrane
Method: Test Example 1: 5-HT2A Receptor Binding Inhibition Test
as §1
Cell membrane: Jump-In HEK cell membrane (expressing human recombinant 5-HT2A receptor)
as §2
Radioactive ligand: [^3H]-Ketanserin around Kd value calculated by the following method
as §3
The Kd value was calculated when the lot of cell membrane was changed. In advance, 0.5 μL of a 1 mmol/L compound for non-specific binding calculation dissolved in DMSO or DMSO was dispensed into a microplate, and the cell membrane was diluted with an Assay buffer. The radioactive ligand solution was serially diluted and the count was confirmed with a liquid scintillator. Assay buffer containing diluted cell membrane was dispensed into a microplate at 50 μL/well. Then, the radioactive ligand solution was dispensed into a microplate at 50 μL/well, and the plate was sealed. It was allowed to stand at room temperature (25° C.) for 1.5 hours. During this period, 50 mmol/L Tris-HCl (pH 7.4) was dispensed into a GF/B UniFilter plate at 50 μL/well and allowed to stand at 4° C. for 1 hour or longer. After that, filtration was performed with Cell harvester (PerkinElmer). The radioactive ligand solution was dispensed into an empty well of the GF/B UniFilter plate at 10 μL/well. After the GF/B UniFilter plate was dried at room temperature, MicroScinti 20 was dispensed into the GF/B UniFilter plate at 50 μL/well, and the plate was sealed. The GF/B UniFilter plate was allowed to stand overnight at room temperature. The radioactivity of [^3H]-Ketanserin bound to the 5-HT2A receptor was measured using Microbeta2 (PerkinElmer) at a measurement time of 1 min/well. The Saturation curve was drawn from the measured value, and the Kd value was calculated from the slope of the Scatchard Plot.
as §4
In advance, 0.5 μL of the compound solution dissolved in DMSO was dispensed into a microplate, and the cell membrane and the hot ligand were diluted with Assay buffer, respectively. Then, the Assay buffer containing the diluted cell membrane was dispensed into a microplate at 50 μL/well. Then, the radioactive ligand solution was dispensed into a microplate at 50 μL/well, and the plate was sealed. Then, it was allowed to stand at room temperature (25° C.) for 1.5 hours. During this period, 50 mmol/L Tris-HCl (pH 7.4) was dispensed into a GF/B UniFilter plate at 50 μL/well and allowed to stand at 4° C. for 1 hour or longer. After that, filtration was performed with Cell harvester (PerkinElmer). After the GF/B UniFilter plate was dried at room temperature, MicroScinti 20 was dispensed into the GF/B UniFilter plate at 50 μL/well, and the plate was sealed. The GF/B UniFilter plate was allowed to stand overnight at room temperature. The radioactivity of [^3H]-Ketanserin bound to the 5-HT2A receptor was measured using Microbeta2 (PerkinElmer) at a measurement time of 1 min/well. The non-specific binding was calculated from the radioactivity of [^3H]-Ketanserin in the presence of […] Serotonin HCl with the unlabeled ligand, and the total binding was calculated from the radioactivity of [^3H]-Ketanserin in the absence of the compound according to the present invention (Vehicle). Finally, the Ki value was calculated from the dose-response curve.
as §5, §6

[3] = read-out: human serotonin 5-HT2C receptor binding inhibitory activity, Ki value
[4] = read-out: human serotonin 5-HT2A receptor binding activity, Ki value

Chain of human recombinant 5-HT2C receptor (P28335 33-458): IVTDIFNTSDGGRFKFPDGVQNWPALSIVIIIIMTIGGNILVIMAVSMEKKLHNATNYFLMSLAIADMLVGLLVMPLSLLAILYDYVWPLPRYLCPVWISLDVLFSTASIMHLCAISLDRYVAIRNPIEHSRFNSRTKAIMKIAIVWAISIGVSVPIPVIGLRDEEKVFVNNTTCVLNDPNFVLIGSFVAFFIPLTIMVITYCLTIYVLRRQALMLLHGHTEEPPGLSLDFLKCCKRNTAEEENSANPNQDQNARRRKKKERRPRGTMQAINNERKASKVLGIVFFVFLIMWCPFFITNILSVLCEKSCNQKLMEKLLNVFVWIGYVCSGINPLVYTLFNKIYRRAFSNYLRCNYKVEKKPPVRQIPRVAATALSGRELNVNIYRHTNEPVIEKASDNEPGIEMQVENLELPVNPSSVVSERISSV
Chain of human recombinant 5-HT2A receptor (P28223 whole entry): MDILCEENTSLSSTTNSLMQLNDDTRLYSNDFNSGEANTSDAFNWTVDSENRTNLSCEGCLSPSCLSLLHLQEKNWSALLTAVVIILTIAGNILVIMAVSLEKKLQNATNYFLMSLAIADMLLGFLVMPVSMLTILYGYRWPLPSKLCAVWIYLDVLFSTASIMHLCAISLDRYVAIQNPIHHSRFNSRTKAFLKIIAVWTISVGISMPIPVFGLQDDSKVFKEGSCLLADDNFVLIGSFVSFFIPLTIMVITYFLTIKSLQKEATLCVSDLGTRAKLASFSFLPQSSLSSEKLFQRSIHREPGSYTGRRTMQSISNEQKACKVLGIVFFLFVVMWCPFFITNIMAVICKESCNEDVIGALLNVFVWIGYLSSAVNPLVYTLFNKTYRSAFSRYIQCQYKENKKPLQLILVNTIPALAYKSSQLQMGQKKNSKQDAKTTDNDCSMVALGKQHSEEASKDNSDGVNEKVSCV

| SMILES | Ki ([1]; read-out: h-5-HT2C Ki) | Ki ([2]; read-out: h-5-HT2A Ki) | Ki [1, 3] | Ki [2, 4] |
| --- | --- | --- | --- | --- |
| CCCCOc1ccc(CN(Cc2coc(C)n2)C(=O)NC2CCN(C)CC2)cc1F [Compound I-087] | < 10 nM | < 10 nM | – | – |
| CCCCOc1ccc(CN(Cc2coc(C)n2)C(=O)N[C@H]2CCN(C)CC23CC3)cc1 [Compound I-089] | < 10 nM | < 10 nM | – | – |
| CCCCOc1ccc(CN(Cc2coc(C)n2)C(=O)N[C@H]2CCN(C)CC23CC3)cc1F [Compound I-090] | < 10 nM | < 10 nM | – | – |
| CCCCOc1ccc(CN(Cc2coc(C)n2)C(=O)N[C@H]2CCN(C)CC23CC3)c(F)c1 [Compound I-091] | < 10 nM | < 10 nM | – | – |
| CC(C)COc1ccc(CN(Cc2ccn(C)c2)C(=O)OC2CCN(C)CC2)cc1 [Compound I-092] | < 10 nM | < 10 nM | – | – |
| CC(C)COc1ccc(CN(Cc2ccc(F)cn2)C(=O)OC2CCN(C)CC2)cc1 [Compound I-093] | 10 to 100 nM | < 10 nM | – | – |
| COc1ccc(CN(Cc2ccn(C)c2)C(=O)OC2CCN(C)CC2)cc1 [Compound I-094] | 10 to 100 nM | < 10 nM | – | – |
| COc1ccc(CN(Cc2coc(C)n2)C(=O)OC2CCN(C)CC2)cc1 [Compound I-095] | 10 to 100 nM | 10 to 100 nM | – | – |
| CCCCOc1ccc(CN(Cc2cnn(C)n2)C(=O)N[C@H]2CCN(C)CC23CC3)cc1F [Compound I-096] | < 10 nM | < 10 nM | – | – |
| CCCCOc1ccc(CN(Cc2cnn(C)n2)C(=O)N[C@H]2CCN(C)CC23CC3)c(F)c1 [Compound I-097] | < 10 nM | < 10 nM | – | – |
| CCCCOc1ccc(CN(Cc2cnn(C)n2)C(=O)N[C@H]2CCN(C)CC23CC3)cc1 [Compound I-098] | < 10 nM | < 10 nM | – | – |
| CCCCOc1ccc(CN(Cc2cnn(C)n2)C(=O)NC2CCN(C)CC2)cc1F [Compound I-100] | < 10 nM | < 10 nM | – | – |
| CC(C)COc1ccc(CN(Cc2cnn(C)n2)C(=O)NC2CCN(C)CC2)cc1 [Compound I-101] | – | – | 0.461 nM | 0.683 nM |
| CC(C)COc1ccc(CN(Cc2cnn(C)n2)C(=O)N[C@H]2CCN(C)CC23CC3)cc1 [Compound I-103] | – | – | 0.634 nM | 1.89 nM |
| Cc1nc(CN(Cc2ccc(CCC(F)(F)F)cc2F)C(=O)NC2CCN(C)CC2)co1 [Compound I-104] | – | – | 0.484 nM | 0.952 nM |
| Cc1nc(CN(Cc2ccc(CCC(F)(F)F)cc2)C(=O)NC2CCN(C)CC2)co1 [Compound I-105] | < 10 nM | < 10 nM | – | – |
| CCCCOc1ccc(CN(Cc2coc(C)n2)C(=O)CN2CCN(C)CC2)cc1 [Compound I-106] | < 10 nM | < 10 nM | – | – |
| CCCc1ccc(CN(Cc2coc(C)n2)C(=O)NC2CCN(C)CC2)cc1F [Compound I-107] | – | – | 0.34 nM | 0.549 nM |

| SMILES | Ki ([1]; read-out: h-5-HT2C Ki) | Ki ([2]; read-out: h-5-HT2A Ki) | Ki [1, 3] | Ki [2, 4] |
| --- | --- | --- | --- | --- |
| CCCc1ccc(CN(Cc2coc(C)n2)C(=O)NC2CCN(C)CC2)cc1 [Compound I-108] | < 10 nM | < 10 nM | – | – |
| CCCCOc1ccc(CN(Cc2coc(C(F)F)n2)C(=O)NC2CCN(C)CC2)cc1 [Compound I-109] | – | – | 0.463 nM | 0.43 nM |
| CCCCOc1ccc(CN(Cc2coc(C3CC3)n2)C(=O)NC2CCN(C)CC2)cc1 [Compound I-110] | – | – | 0.301 nM | 0.537 nM |
| CN1CCC(NC(=O)N(Cc2ccc(OCC(F)(F)F)cc2)Cc2coc(C3CC3)n2)CC1 [Compound I-111] | < 10 nM | < 10 nM | – | – |
| CN1CCC(NC(=O)N(Cc2coc(C3CC3)n2)Cc2ccc(OCC(F)(F)F)cc2F)CC1 [Compound I-112] | < 10 nM | < 10 nM | – | – |
| CCCCOc1ccc(CN(Cc2coc(C)n2)C(=O)NC2CCN(C)CC2)c(F)c1 [Compound I-113] | < 10 nM | < 10 nM | – | – |
| CCCc1ccc(CN(Cc2coc(C)n2)C(=O)NC2CCN(C)CC2)c(F)c1 [Compound I-114] | < 10 nM | < 10 nM | – | – |
| Cc1nc(CN(Cc2ccc(OCC(C)C)c(F)c2)C(=O)NC2CCN(C)CC2)co1 [Compound I-115] | < 10 nM | < 10 nM | – | – |
| CC(C)COc1ccc(CN(Cc2cnn(C)n2)C(=O)NC2CCN(C)CC2)cc1F [Compound I-116] | < 10 nM | < 10 nM | – | – |
| Cc1nc(CN(Cc2ccc(OCC(C)C)cc2F)C(=O)NC2CCN(C)CC2)co1 [Compound I-117] | – | – | 0.315 nM | 0.82 nM |
| CC(C)COc1ccc(CN(Cc2cnn(C)n2)C(=O)NC2CCN(C)CC2)c(F)c1 [Compound I-118] | – | – | 0.371 nM | 1.03 nM |
| CCCCOc1ccc(CN(Cc2coc(CF)n2)C(=O)NC2CCN(C)CC2)cc1 [Compound I-119] | < 10 nM | < 10 nM | – | – |
| CC(C)COc1ccc(CN(Cc2coc(CF)n2)C(=O)NC2CCN(C)CC2)cc1 [Compound I-120] | < 10 nM | < 10 nM | – | – |
| Cc1nc(CN(Cc2ccc(OCC(F)(F)C(F)(F)F)cc2F)C(=O)NC2CCN(C)CC2)co1 [Compound I-121] | < 10 nM | < 10 nM | – | – |
| CN1CCC(NC(=O)N(Cc2cnn(C)n2)Cc2ccc(OCC(F)(F)C(F)(F)F)cc2F)CC1 [Compound I-122] | – | – | 0.281 nM | 0.824 nM |
| CCCCOc1ccc(CN(Cc2coc(C)n2)C(=O)CC2CCN(C)CC2)cc1F [Compound I-123] | – | – | 1.39 nM | 0.506 nM |
| CCCCOc1ccc(CN(Cc2coc(C)n2)C(=O)CN2CCN(C)CC2)cc1F [Compound I-126] | – | – | 6.25 nM | 1.24 nM |
| CCCCOc1ccc(CN(Cc2coc(C)n2)C(=O)CCC2CCNCC2)cc1F [Compound I-127] | 100 to 5000 nM | 10 to 100 nM | – | – |

— patent US20240083872A1, “CYCLIC AMINE DERIVATIVES HAVING SEROTONIN RECEPTOR BINDING ACTIVITY” (Shionogi & Co., Ltd., priority 2020, published 2024)
